Measurements reported in patent publication US20060198889A1, “Roflumilast and integrin inhibitor combination and treatement method” (priority 2005, published 2006).

How the values were obtained:
α4/β1 integrin = α4/β1 integrin (Homo sapiens, UniProt P05556+P13612); assay: Inhibition of α4/β1 binding to VCAM-1
[1] = system: mild/moderate asthmatics not treated with inhaled corticosteroids; assay: ARES study: R411 monotherapy, 12 week treatment period; type: in vivo, human; conditions: for Asthma control Questionnaire (Total Score), change from baseline / Morning asthma symptoms, change from baseline / Rescue β2-agonist use (puffs/d), change from baseline: ITT population
Description: The ARES study illustrated in FIG. 3 was designed to evaluate the safety and efficacy of monotherapy R411 over a 12 week treatment period in 480 mild/moderate asthmatics not treated with inhaled corticosteroids. Patients were randomized to one of four cohorts: 50, 200, 600 mg QD R411, or placebo (n=120/group). The primary endpoint in the study was change in FEV1 from baseline, and secondary endpoints included PEFR, asthma exacerbations, β2-agonist use, asthma control questionnaire, asthma symptom scores, and nocturnal awakenings. Small airway inflammation represents a clinically significant component of moderate to severe asthma that is not adequately controlled by currently available inhaled corticosteroids therapies.
ARES study evaluated the safety and efficacy of monotherapy with R411 over a 12-week treatment period in 479 mild/moderate asthmatics not treated with inhaled corticosteroids. Patients were randomized to one of four cohorts: 50, 200, 600 mg once daily R411, or placebo.

α4/β7 integrin = biological target: T1, α4/β7 integrin (Homo sapiens, UniProt P13612+P26010); assay: Inhibition of α4/β7 binding to MadCAM-1
T1 sequence (P13612 34-1032): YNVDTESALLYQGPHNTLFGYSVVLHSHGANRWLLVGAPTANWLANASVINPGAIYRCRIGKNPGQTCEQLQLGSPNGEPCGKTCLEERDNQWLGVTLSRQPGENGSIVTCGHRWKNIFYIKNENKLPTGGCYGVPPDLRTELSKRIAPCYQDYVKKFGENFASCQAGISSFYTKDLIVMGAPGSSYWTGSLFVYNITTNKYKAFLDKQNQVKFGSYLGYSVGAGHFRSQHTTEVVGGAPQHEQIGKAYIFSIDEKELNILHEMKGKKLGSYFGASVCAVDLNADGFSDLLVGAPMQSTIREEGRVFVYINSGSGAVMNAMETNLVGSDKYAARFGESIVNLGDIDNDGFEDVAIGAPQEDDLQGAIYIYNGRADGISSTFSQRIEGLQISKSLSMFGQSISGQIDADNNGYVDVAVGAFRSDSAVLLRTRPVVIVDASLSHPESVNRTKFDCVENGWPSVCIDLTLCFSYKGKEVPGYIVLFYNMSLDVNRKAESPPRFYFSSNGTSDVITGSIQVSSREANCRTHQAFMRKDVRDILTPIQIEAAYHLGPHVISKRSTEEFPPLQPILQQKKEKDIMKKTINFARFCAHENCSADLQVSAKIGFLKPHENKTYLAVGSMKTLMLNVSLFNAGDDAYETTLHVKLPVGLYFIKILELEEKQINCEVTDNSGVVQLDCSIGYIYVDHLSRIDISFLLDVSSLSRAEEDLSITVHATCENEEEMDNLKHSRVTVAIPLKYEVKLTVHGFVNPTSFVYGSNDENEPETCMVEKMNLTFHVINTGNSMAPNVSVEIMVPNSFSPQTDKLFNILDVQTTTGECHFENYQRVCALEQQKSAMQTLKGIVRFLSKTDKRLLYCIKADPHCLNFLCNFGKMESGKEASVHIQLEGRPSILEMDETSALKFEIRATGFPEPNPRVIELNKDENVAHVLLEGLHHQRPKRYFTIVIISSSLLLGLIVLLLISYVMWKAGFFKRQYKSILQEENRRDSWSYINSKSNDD
T1 sequence (P26010 20-798): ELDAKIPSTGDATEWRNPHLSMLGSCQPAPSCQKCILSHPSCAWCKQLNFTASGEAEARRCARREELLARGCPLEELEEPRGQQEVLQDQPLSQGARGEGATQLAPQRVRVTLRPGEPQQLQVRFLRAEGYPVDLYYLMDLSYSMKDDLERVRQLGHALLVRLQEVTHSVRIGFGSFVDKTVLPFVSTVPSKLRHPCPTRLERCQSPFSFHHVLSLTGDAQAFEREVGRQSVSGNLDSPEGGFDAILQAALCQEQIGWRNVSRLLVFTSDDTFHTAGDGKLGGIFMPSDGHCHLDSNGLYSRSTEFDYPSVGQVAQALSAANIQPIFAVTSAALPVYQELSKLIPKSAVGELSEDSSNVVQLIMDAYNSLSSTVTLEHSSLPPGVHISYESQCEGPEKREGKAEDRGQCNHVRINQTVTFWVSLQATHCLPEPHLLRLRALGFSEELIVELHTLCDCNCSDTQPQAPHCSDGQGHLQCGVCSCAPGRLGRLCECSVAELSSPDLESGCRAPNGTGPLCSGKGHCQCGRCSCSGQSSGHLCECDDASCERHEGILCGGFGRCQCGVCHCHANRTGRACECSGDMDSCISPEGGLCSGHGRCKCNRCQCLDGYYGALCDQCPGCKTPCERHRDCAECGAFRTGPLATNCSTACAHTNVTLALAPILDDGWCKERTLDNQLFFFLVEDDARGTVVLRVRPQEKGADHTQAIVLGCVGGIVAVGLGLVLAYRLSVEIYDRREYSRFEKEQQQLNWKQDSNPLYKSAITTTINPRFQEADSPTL

[2] = system: airway inflammation in the atopic primate; assay: Airway inflammation in the atopic primate, oral R411 (FIG. 4); type: in vivo; conditions: oral administration, atopic primate (FIG. 4)
[3] = 12-week monotherapy, versus placebo

Sequence of α4/β1 integrin (P05556 21-798, one chain of several): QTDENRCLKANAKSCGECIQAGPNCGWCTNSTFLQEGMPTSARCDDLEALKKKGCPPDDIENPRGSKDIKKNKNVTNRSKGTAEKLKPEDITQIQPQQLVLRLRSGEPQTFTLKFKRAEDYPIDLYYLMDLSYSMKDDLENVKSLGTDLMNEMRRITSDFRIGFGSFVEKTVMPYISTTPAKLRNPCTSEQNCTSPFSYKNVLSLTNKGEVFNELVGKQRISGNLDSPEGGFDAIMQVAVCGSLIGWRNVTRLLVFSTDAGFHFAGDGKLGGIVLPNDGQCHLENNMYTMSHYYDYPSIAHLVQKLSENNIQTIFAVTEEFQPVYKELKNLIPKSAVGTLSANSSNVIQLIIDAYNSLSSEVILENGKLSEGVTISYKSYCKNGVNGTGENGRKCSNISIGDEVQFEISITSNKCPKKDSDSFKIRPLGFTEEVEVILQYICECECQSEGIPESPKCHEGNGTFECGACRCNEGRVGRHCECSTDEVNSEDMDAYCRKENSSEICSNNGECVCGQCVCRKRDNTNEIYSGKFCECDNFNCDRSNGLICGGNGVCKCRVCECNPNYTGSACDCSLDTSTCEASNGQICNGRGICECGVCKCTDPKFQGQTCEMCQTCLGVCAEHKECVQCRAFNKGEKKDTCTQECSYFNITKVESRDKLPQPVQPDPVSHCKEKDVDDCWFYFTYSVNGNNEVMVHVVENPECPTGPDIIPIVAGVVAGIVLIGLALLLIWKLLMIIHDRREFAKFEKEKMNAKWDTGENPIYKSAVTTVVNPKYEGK

- binding of α4/β1 to vascular cell adhesion molecule (VCAM-1) (α4/β1 integrin): inhibits
- effectiveness against α4/β1 integrin (α4/β1 integrin): effective
- binding of α4/β7 to MadCAM-1 (α4/β7 integrin): inhibits
- effectiveness against α4/β7 integrin (α4/β7 integrin): effective
Structure (SMILES): CCN(CC)CCOC(=O)[C@H](Cc1ccc(NC(=O)c2c(Cl)cccc2Cl)cc1)NC(=O)c1c(C)cccc1Cl [R411, N-(2-Chloro-6-methylbenzoyl)-4-[(2,6-dichlorobenzoyl)amino]-L-phenylalanine-2-(diethylamino)ethyl ester]
- decrease in daytime asthma symptom score [1, 3]: Statistically significant improvements
- decrease in nocturnal symptom score [1, 3]: Statistically significant improvements
- Asthma control Questionnaire (Total Score), change from baseline ([1]; R411 200 mg once daily): −0.29 [2.08] Total Score
- Morning asthma symptoms, change from baseline ([1]; R411 200 mg once daily): −0.34*[1.55]
- Rescue β2-agonist use (puffs/d), change from baseline ([1]; R411 200 mg once daily, N = 117): −0.36/[3.04] puffs/d
- Asthma control Questionnaire (Total Score), change from baseline ([1]; R411 600 mg once daily): −0.23 [2.00] Total Score
- Morning asthma symptoms, change from baseline ([1]; R411 600 mg once daily): −0.33*[1.57]
- Rescue β2-agonist use (puffs/d), change from baseline ([1]; R411 600 mg once daily, N = 119): −0.41*/[3.11] puffs/d
- Asthma Control Questionnaire Scores ([1]; compared to placebo): Improvement
- Asthma Quality-of-Life ([1]; compared to placebo): Improvement
- airway inflammation [2]: attenuates
